Values of other authors in US20070141147A1, “SEQUENTIAL RELEASE PHARMACEUTICAL FORMULATIONS” (Auriga Laboratories, Inc., priority 2005, published 2007).
Structures can show the parent of a compound that is named as a salt.

Tests used:
[1] = in vivo
[2] = water and alcohol

Structure (SMILES)	plasma half-life [1]	solubility [2]
C[N+]1(C)[C@@H]2C[C@@H](OC(=O)[C@H](CO)c3ccccc3)C[C@H]1[C@@H]1O[C@@H]12 [methscopolamine]	relatively short	–
COc1ccccc1OCC(O)CO (stereo not drawn) [Guaifenesin, 3-(2-methoxyphenoxy)-1,2-propanediol]	–	soluble
CNCC(O)c1cccc(O)c1 (stereo in doubt) [Phenylephrine hydrochloride, (S)-3-hydroxy-[alpha][(methylamino)methylbenzenemethanol hydrochloride]	–	freely soluble
